In paper PMC6154745 (Oncotarget, 2018):
Marks after values point to notes of the source that are not given here.

Tests used:
lung DNA [1] = experiment: 8-oxo-dGuo (oxidative DNA damage) in lung by 32P postlabeling, Study 1; type: in vivo, Swiss H mice; conditions: for 8-oxo-dGuo: lung
Procedure: (§1) Each group was composed of 10 female mice.
(§2) DNA was extracted from tissue specimens (50 mg) collected individually from the lungs of 40 Swiss H mice used in Study 1 and from lungs, heart and liver of 80 ICR (CD-1) mice used in Study 2, as previously described. Bulky DNA adducts, after butanol enrichment, and 8-hydroxy-2’-deoxyguanosine (8-oxo-dGuo) were measured by ^32P postlabeling as previously described.

[2] = test system: normochromatic erythrocytes; experiment: Systemic genotoxicity: frequency of MN NCE in peripheral blood; type: in vivo, Swiss H mice; parameters: unit not given here
lung miRNAs = experiment: miRNA expression (microarray), Study 3, lung; type: in vivo, ICR (CD-1) mice
Procedure: as §1
(§3) The urine was collected for 8 h and pooled from the mice belonging to each experimental group in Study 3 by using metabolic cages during the day preceding euthanasia of mice. Immediately after sacrifice, a bronchoalveolar lavage (BAL) was performed and used for preparing BALF, and the blood was collected and used for preparing serum. BALF and blood serum were pooled within each experimental group. The organs reported in the general design of the studies were collected, as previously described. Immediately after collection, each organ or fluid was immersed in RNAlater and kept at -80°C for miRNA analysis. Portions of the organs used in Study 1 and Study 2 were stored at -80°C for evaluating DNA damage.
(§4) For evaluating the expression of pulmonary miRNAs we used the 7th generation miRCURY LNA™ microRNA Array (Exiqon), which contains 3,100 capture probes covering human, mouse and rat miRNAs. In particular, this array covers 1,135 mouse miRNAs, i.e. the 88.6% of the 1,281 mouse miRNAs listed in miRBase 19. Microarray analyses were carried out as previously described.
(§5) Treatment-related differences in body weights, in the frequency of MN NCE, and in the levels of pulmonary DNA adducts and 8-oxo-dGuo, all of them expressed as means ± SE within each group of mice, were evaluated for statistical significance by ANOVA followed by Student's t test for unpaired data. miRNA microarray data, after local background subtraction, log transformation, and normalization were analyzed by GeneSpring software (Agilent, Santa Clara, CA), and expression data were median centered by using the GeneSpring normalization option.

liver DNA = experiment: Bulky DNA adducts by 32P postlabeling, Study 2, liver; type: in vivo, ICR (CD-1) mice; conditions: for Bulky DNA adducts: Liver; for increase of DNA adduct levels over sham-exposed mice: liver
Procedure: as §1, §2

lung DNA [3] = experiment: Bulky DNA adducts in lung by 32P postlabeling, Study 1; type: in vivo, Swiss H mice
Procedure: as §1, §2

kidney miRNAs = experiment: miRNA expression (microarray), Study 3, kidney; type: in vivo, ICR (CD-1) mice
Procedure: as §1, §3, §4, §5

colon miRNAs = experiment: miRNA expression (microarray), Study 3, colon; type: in vivo, ICR (CD-1) mice
Procedure: as §1, §3, §4, §5

urinary bladder miRNAs = experiment: miRNA expression (microarray), Study 3, urinary bladder; type: in vivo, ICR (CD-1) mice
Procedure: as §1, §3, §4, §5

BALF miRNAs = experiment: miRNA expression (microarray), Study 3, BALF; type: in vivo, ICR (CD-1) mice
Procedure: as §1, §3, §4, §5

Body weight, Study 1 = type: in vivo, Swiss H mice; conditions: after 10 weeks
Source text: Strain H neonatal mice, used in Study 1, were born at the Animal Laboratory of the National Center of Oncology (Sofia, Bulgaria). The mice were housed in Makrolon™ cages on sawdust bedding and maintained on standard rodent chow (Kostinbrod, Bulgaria) and allowed drinking water ad libitum. Swiss ICR (CD-1) mice, either neonatal (Study 2) or two- month old (Study 3), were purchased from Harlan Laboratories (San Pietro al Natisone, Udine, Italy). The mice were housed in Makrolon™ cages on sawdust bedding and maintained on standard rodent chow (Teklad 9607, Harlan Laboratories) and tap water ad libitum. The animal room temperature was 23 ± 2°C, with a relative humidity of 55% and a 12 h day-night cycle. Housing and treatments of mice were in accordance with NIH, European (2010/63 UE Directive), and institutional guidelines. The issuance of the NIH Office of Laboratory Animal Welfare (OLAW) with the University of Genoa bears the identification number A5899-01 and is effective until February 28, 2021. The Institutional Animal Care and Use Committee (IACUC) protocol was approved by the Fox Chase Cancer Center Committee on April 13, 2015.
In Study 1 and Study 2, feeding of the drug-containing diet started after weanling (about 4 weeks) and continued until the 10th week of life.
as §5

liver miRNAs = experiment: miRNA expression (microarray), Study 3, liver; type: in vivo, ICR (CD-1) mice
Procedure: as §1, §3, §4, §5

[4] = females, MCS-exposed mice given celecoxib
[5] = males, MCS-exposed mice given celecoxib
[6] = low dose (20 mg/kg diet) vs sham

Bulky DNA adducts (liver DNA; F): 1.8 ± 0.08^c adducts/10^8 nucleotides
Bulky DNA adducts (liver DNA; M): 1.6 ± 0.12^a adducts/10^8 nucleotides
Bulky DNA adducts (liver DNA; M + F): 1.7 ± 0.08^a adducts/10^8 nucleotides
increase of DNA adduct levels over sham-exposed mice (liver DNA; MCS-exposed mice treated with celecoxib, females): 1.5 fold
increase of DNA adduct levels over sham-exposed mice (liver DNA; MCS-exposed mice treated with celecoxib, males): 1.3 fold
increase of DNA adduct levels over sham-exposed mice (liver DNA; MCS-exposed mice treated with celecoxib, mixed genders): 1.4 fold
increase of DNA adduct levels over sham-exposed mice (liver DNA; combined genders): 1.4 fold
increase of DNA adduct levels over sham-exposed mice (liver DNA; females): 1.5 fold
increase of DNA adduct levels over sham-exposed mice (liver DNA; males): 1.3 fold
increase of pulmonary DNA adducts vs sham-exposed mice (lung DNA [3]; MCS-exposed mice given celecoxib): 8.5 fold
increase of pulmonary DNA adducts vs sham-exposed mice (lung DNA [3]; combined genders): 3.3 fold
Bulky DNA adducts (lung DNA [3]; lung, F): 4.3 ± 0.34^b adducts/10^8 nucleotides
Bulky DNA adducts (lung DNA [3]; lung, M): 4.3 ± 0.40^b adducts/10^8 nucleotides
Bulky DNA adducts (lung DNA [3]; lung, M + F): 4.3 ± 0.25^b adducts/10^8 nucleotides
autoradiographic spots absent in sham-exposed mice (lung DNA [3]; lung, MCS-free mice): 3
SMILES: Cc1ccc(-c2cc(C(F)(F)F)nn2-c2ccc(S(N)(=O)=O)cc2)cc1 [Celecoxib, 4-[5-(4-methylphenyl)-3-(trifluoromethyl)-1H-pyrazol-1-yl] benzene-1-sulfonamide]
8-oxo-dGuo (lung DNA [1]; F): 2.3 ± 0.28 8-oxo-dGuo/10^5 nucleotides
8-oxo-dGuo (lung DNA [1]; M): 1.6 ± 0.29 8-oxo-dGuo/10^5 nucleotides
8-oxo-dGuo (lung DNA [1]; M + F): 1.9 ± 0.22 8-oxo-dGuo/10^5 nucleotides
increase of pulmonary 8-oxo-dGuo levels vs sham-exposed mice (lung DNA [1]; mouse, in vivo): did not affect
frequency of MN NCE ([2]; females, 4 months of age): 0.8 ± 0.08
frequency of MN NCE [2, 4]: 1.2 ± 0.08
frequency of MN NCE ([2]; males, 4 months of age): 1.4 ± 0.12
frequency of MN NCE [2, 5]: 2.2 ± 0.15
miR-361 upregulation (lung miRNAs): 8 fold
upregulated/downregulated miRNAs (lung miRNAs; MCS-exposed mice): 0/1
upregulated/downregulated miRNAs (lung miRNAs; MCS-free mice): 14/0
number of miRNAs modulated by celecoxib (lung miRNAs; high dose): 15
number of miRNAs modulated (lung miRNAs; low dose): 3
miR-296 upregulation (lung miRNAs; [6]): 2.4 fold
miR-551b upregulation (lung miRNAs; [6]): 2.2 fold
miR185 downregulation (lung miRNAs; low dose (20 mg/kg diet), compared to MCS-exposed mice): 2.8 fold
upregulated/downregulated miRNAs (kidney miRNAs; MCS-exposed mice): 0/0
miR-30c-2-3p downregulation (kidney miRNAs; MCS-free mice): 14 fold
miR-30c-2-5p downregulation (kidney miRNAs; MCS-free mice): 13 fold
miR-30e downregulation (kidney miRNAs; MCS-free mice): 8 fold
miR-185-5p downregulation (kidney miRNAs; MCS-free mice): 25 fold
miR-301 downregulation (kidney miRNAs; MCS-free mice): 7 fold
miR-802-3p downregulation (kidney miRNAs; MCS-free mice): 6 fold
miR-1964-5p downregulation (kidney miRNAs; MCS-free mice): 7 fold
upregulated/downregulated miRNAs (kidney miRNAs; MCS-free mice): 7/20
number of miRNAs modulated by celecoxib (kidney miRNAs; high dose): 27
upregulated/downregulated miRNAs (colon miRNAs; MCS-exposed mice): 0/2
miR-185-5p downregulation (colon miRNAs; MCS-free mice): 8 fold
miR-301 downregulation (colon miRNAs; MCS-free mice): 6 fold
upregulated/downregulated miRNAs (colon miRNAs; MCS-free mice): 1/4
number of miRNAs modulated by celecoxib (colon miRNAs; high dose): 7
miR-30c-2-3p downregulation (urinary bladder miRNAs; MCS-exposed mice): 7 fold
miR-30e upregulation (urinary bladder miRNAs; MCS-exposed mice): 6 fold
miR-185-5p downregulation (urinary bladder miRNAs; MCS-exposed mice): 14 fold
miR-701-3p upregulation (urinary bladder miRNAs; MCS-exposed mice): 5 fold
miR-802-3p upregulation (urinary bladder miRNAs; MCS-exposed mice): 5 fold
miR-1964-5p downregulation (urinary bladder miRNAs; MCS-exposed mice): 5 fold
upregulated/downregulated miRNAs (urinary bladder miRNAs; MCS-exposed mice): 8/12
miR-30c-2-5p downregulation (urinary bladder miRNAs; MCS-free mice): 10 fold
miR-30e downregulation (urinary bladder miRNAs; MCS-free mice): 8 fold
miR-185-5p downregulation (urinary bladder miRNAs; MCS-free mice): 20 fold
miR-301 downregulation (urinary bladder miRNAs; MCS-free mice): 8 fold
upregulated/downregulated miRNAs (urinary bladder miRNAs; MCS-free mice): 0/10
number of miRNAs modulated by celecoxib (urinary bladder miRNAs; high dose): 30
miR-1964-5p downregulation (BALF miRNAs; MCS-exposed mice): 3 fold
upregulated/downregulated miRNAs (BALF miRNAs; MCS-exposed mice): 0/2
miR-1964-5p downregulation (BALF miRNAs; MCS-free mice): 6 fold
upregulated/downregulated miRNAs (BALF miRNAs; MCS-free mice): 2/3
number of miRNAs modulated by celecoxib (BALF miRNAs; high dose): 7
body weight (Body weight, Study 1; [4]): 26.7 ± 0.56 g
body weight (Body weight, Study 1; females): 27.8 ± 0.80 g
body weight (Body weight, Study 1; [5]): 34.6 ± 1.55 g
body weight (Body weight, Study 1; males): 37.2 ± 0.97 g
upregulated/downregulated miRNAs (liver miRNAs; MCS-exposed mice): 2/1
miR-30c-2-3p downregulation (liver miRNAs; MCS-free mice): 9 fold
miR-30e downregulation (liver miRNAs; MCS-free mice): 10 fold
miR-802-3p downregulation (liver miRNAs; MCS-free mice): 7 fold
upregulated/downregulated miRNAs (liver miRNAs; MCS-free mice): 0/15
number of miRNAs modulated by celecoxib (liver miRNAs; high dose): 18
